Experimental data taken from patent publication US20050233304A1, “Method of screening remedy for renal failure” (YAMANOUCHI PHARMACEUTICAL CO., LTD., priority 2002, published 2005).

Experiments:
Assay type in all cases: cell-based
human FGK = target: T1, human FGK (Homo sapiens, UniProt Q9BXA5, A284G/P282A); assay: Screening of substances inhibiting FGK activity: pEF-BOS-Gqi + pSRE-luc luciferase reporter in HEK293 cells transfected with human FGK; details: pEF-BOS-Gqi and human FGK plasmid, 24 hours with compound, DMSO control = 100%, read-out: Example 5 Inhibition of pGqi + pSRE-luc reporter activity IC50
T1 construct: A complete cDNA coding for the FGK of the present invention was obtained by PCR using a human kidney cDNA; expressed in transfected cells; host or cells: HEK293 cells (ATCC), transient transfection with FuGENE6
T1 sequence (Q9BXA5 5-334 P282A/A284G): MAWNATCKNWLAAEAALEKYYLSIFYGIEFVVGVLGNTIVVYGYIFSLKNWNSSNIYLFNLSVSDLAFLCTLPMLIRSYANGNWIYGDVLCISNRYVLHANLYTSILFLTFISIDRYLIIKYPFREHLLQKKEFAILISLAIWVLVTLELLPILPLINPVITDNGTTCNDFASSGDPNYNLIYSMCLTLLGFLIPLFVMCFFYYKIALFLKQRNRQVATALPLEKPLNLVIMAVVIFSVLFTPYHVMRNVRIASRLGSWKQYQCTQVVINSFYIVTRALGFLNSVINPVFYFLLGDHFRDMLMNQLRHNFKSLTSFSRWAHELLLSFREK
Experimental: An expression plasmid used in the Example for expressing a chimeric protein of Gq and Gi was prepared by cloning, a gene (hereinafter, to be referred to as Gqi gene) constructed by replacing 5 amino acids in the Gq C-terminal side (Glu-Tyr-Asn-Leu-Val; the amino acid sequence represented by SEQ ID NO:15) with 5 amino acids in the Gi C-terminal side (Asp-Cys-Gly-Leu-Phe; the amino acid sequence represented by SEQ ID NO:16) in accordance with the method of Conklin, B. R. et al. (Nature, 363, 274-276, 1993) into the plasmid pEF-BOS-dhfr. The constructed plasmid was named pEF-BOS-Gqi.
As the illustrative method, firstly, using Dulbecco's modified Eagle's medium (DMEM) containing 10% fetal bovine serum, HEK293 cells (obtained from ATCC) were dispensed in 1×10^5 cells per well portions into a 24-well plate (Asahi Technbglass) and cultured for 24 hours. Then transfection of 0.05 μg of a reporter plasmid pSRE-luc in which a serum response sequence was inserted into upstream of a luciferase gene (PathDetect™ SRE cis-Reporting System; Stratagene), 0.05 μg of pEF-BOS-Gqi and 0.5 μg at the maximum of a human FGK expression plasmid which is 0.6 μg in total per well was carried out using a transfection reagent (FuGENE6; Boehringer-Roche). Cells transfected with the pcDNA3.1 vector alone without containing FGK, together with the reporter plasmid and pEF-BOS-Gqi, was used as the control. Other conditions and measurement of the reporter activity were as described in Example 3. Increase in the reporter activity by the expression of FGK was observed. Additionally, dose-dependent activation by FGK was also observed.
Screening of a test substance was carried out using the screening system which uses changes in FGK activity as the index, constructed in Example 4.
Using 10% fetal bovine serum-containing Dulbecco's modified Eag;e's medium(DMEM),HEK293 cells(obtained from ATCC) were inoculated in 1×10^4 cells per well portions into a 96-well plate (Asahi Technoglass) and cultured at 37° C. for 24 hours. Transfection of 0.01 μg of the reporter plasmid pSRE-luc (Example 4), 0.03 μg of pEF-BOS-Gqi and 0.02 μg of a human FGK expression plasmid which is 0.06 μg in total per well was carried out using a transfection reagent (FuGENE6; Boehringer-Roche). After 6 hours of incubation at 37° C., a dimethyl sulfoxide solution of each test compound was added to become a final concentration of 30 μM, 10 μM, 3 μM, […], 0.3 μM or 0.1 μM, and then incubated at 37° C. for additional 24 hours. Thereafter, the reporter activity was measured to determine 50% activity inhibition concentration (IC50) of each test compound. As a control of the compound treatment, reporter activity when the same volume of dimethyl sulfoxide alone was added was regarded as 100%. Other conditions and measurement of reporter activity were as described in Example 4.

CTGF mRNA expression = assay: Inhibition of intrinsic CTGF mRNA expression in primary human proximal renal tubule epithelium cells (RPTEC), real time PCR; details: 10 μM compound, 24 hours, CTGF/G3PDH, DMSO control = 100%
Experimental: Primary culture cells of human proximal renal tubule epithelium (RPTEC; Asahi Technoglass) were plated at 2×10^5 cells per well into 12-well plates (Asahi Technoglass) using a proliferation medium for kidney epithelial cell use (Burette Kit REGM; Asahi Technoglass). After incubation for 24 hours at 37° C., each of the test compounds obtained in Example 5 (substances which inhibit FGK activity, namely FGK inverse agonists) was added thereto to a final concentration of 10 μM, and then incubated for additional 24 hours at 37° C. Thereafter, the cells were collected and the total RNA was purified using a spin column (RNeasy Mini Kit; Qiagen). Reverse transcription reaction was carried out using 1.5 μg of the total RNA and a reverse transcriptase (PowerScript Transcriptase; BD Biosciences) to obtain cDNA samples. Using each of them as the template, expressed amounts of CTGF and a housekeeping gene of glyceraldehyde 3-phosphate dehydrogenase (to be referred to as G3PDH hereinafter) were measured by real time PCR using PRISM 7700 Sequence Detector (PERKIN ELMER). In the PCR, SYBR Green PCR Master Mix (Applied Biosystems) was used, and after heating at 50° C. (2 minutes) and 95° C. (10 minutes), a cycle of 95° C. (15 seconds)/60° C. (60 seconds) was repeated for 40 times. For the detection of CTGF, an oligonucleotide represented by SEQ ID NO:17 was used as the forward primer, and an oligonucleotide represented by SEQ ID NO:18 was used as the reverse primer. For the detection of G3PDH, an oligonucleotide represented by SEQ ID NO:19 was used as the forward primer and an oligonucleotide represented by SEQ ID NO:20 was used as the reverse primer. A value calculated by dividing the expressed amount of CTGF by the expressed amount of G3PDH, both obtained by the PCR, was defined as the CTGF expression quantity per unit RNA quantity. Also, as a control of the compound treatment, the CTGF expression quantity per unit RNA quantity when the same volume of dimethyl sulfoxide alone was added was regarded as 100%. The inhibitory activity of CTGF expression obtained by the assay (inhibitory activity at a compound concentration of 10 μM) is shown in Table 1.

[1] = test system: CTGF promoter activation by FGK; assay: Inhibition of CTGF promoter activation by FGK: pCTGF-luc reporter in HEK293 cells transfected with human FGK; details: HEK293 cells transfected with pCTGF-luc and human FGK plasmid; 24 hours with compound; DMSO control = 100%; read-out: Example 7 Inhibition of pCTGF-luc activity IC50
Experimental: Using Dulbecco's modified Eagle's medium (DMEM) containing 10% fetal bovine serum, HEK293 cells (obtained from ATCC) were dispensed in 1×10^5 cells per well portions into a 24-well plate (Asahi Technoglass) and cultured at 37° C. for 24 hours. Transfection of 0.1 μg of a reporter plasmid and 0.5 μg at the maximum of a human FGK expression plasmid which is 0.6 μg in total per well was carried out using a transfection reagent (FuGENE6; Boehringer-Roche) in accordance with the instructions attached thereto. In this case, the amount of the transfected genes in each of the all wells was adjusted to 0.6 μg in total per well by adding a plasmid vector (pcDNA3.1; Invitrogen). Cells transfected with the pcDNA3.1 vector alone without containing FGK, together with the reporter plasmid, was used as the control. The medium was discarded 24 hours after transfection, and the residue was lysed by adding 100 μl per well of a cell lysis buffer. A […] portion of the lysate was mixed with 100 μl of a luciferin substrate solution and allowed to undergo the reaction to be measured using a luminometer (ML3000; Dynatech Laboratories). Activation of the CTGF promoter and COLIA2 promoter by the expression of FGK was observed. Additionslly, dose-dependent activation by FGK was also observed.
Screening of a test compound constructed in Example 3 was carried out using the CTGF promoter activation system by FGK.
HEK293 cells (obtained from ATCC) were plated at 1×10^4 cells per well into 96-well plates (Asahi Technoglass) in Dulbecco's modified Eagle's medium containing 10% fetal bovine serum (DMEM). After incubation for 24 hours at 37° C., cells were transfected with 0.02 μg of pCTGF-luc (cf. Example 2) and 0.02 μg of a human FGK expression plasmid which is 0.04 μg in total per well was carried out using a transfection reagent (FuGENE6; Boehringer-Roche). After incubation for 6 hours at 37° C., a dimethyl sulfoxide solution of each test compound was added thereto to become a final concentration of 30 µM, 10 μM, 3 μM, […], 0.3 μM or […], and then incubated at 37° C. for additional 24 hours. Thereafter, the reporter activity was measured to determine 50% activity inhibition concentration (IC50) of each test compound. As a control of the compound treatment, reporter activity when the same volume of dimethyl sulfoxide alone was added was regarded as 100%. Other conditions and measurement of reporter activity were as described in Example 3. Substances which inhibit CTGF promoter activation by FGK were selected, and the substances having an IC50 value of 10 μM or less were shown in Table 1. It was confirmed that a substance which inhibits CTGF expression by the assay system, namely a substance useful as a renal failure treating agent can be certainly be screened.

SMILES	IC50 (human FGK) [µM]	IC50 [1] [µM]	Example 6 Inhibition Intrinsic CTGF mRNA Expression at 10 μM (CTGF mRNA expression) [%]
CCOc1ccc(Nc2nc(-c3sc(N)nc3C)cs2)cc1 [No 1, N^2-(4-ethoxyphenyl)-4′-methyl-4,5′-bi-1,3-thiazole-2,2′-diamine]	6.1	14.1	62
CC(=O)Nc1nc(C)c(-c2csc(Nc3cccc(C)c3)n2)s1 [No 3, N-[4′-methyl-2-[(3-methylphenyl)amino]-4,5′-bi-1,3-thiazol-2′-yl]acetamide hydrobromate]	0.6	2.6	79
CC(=O)Nc1ccc(-c2csc(Nc3cccc(C(F)(F)F)c3)n2)cc1 [No 4, N-[4-(2-{[3-(trifluoromethyl)phenyl]amino}-1,3-thiazol-4-yl)phenyl]acetamide]	3.9	3.6	65
COc1ccc(Cl)cc1Nc1nc(-c2cccs2)cs1 [No 2, N-(5-chloro-2-methoxyphenyl)-4-(2-thienyl)-1,3-thiazole-2-amine]	4.6	16.1	72

Further lines, with some results ahead:

IC50 (human FGK) [µM]	IC50 [1] [µM]	SMILES	Example 6 Inhibition Intrinsic CTGF mRNA Expression at 10 μM (CTGF mRNA expression) [%]
2.5	1.8	CC(=O)Nc1nc(C)c(-c2csc(Nc3ccc(O)cc3)n2)s1 [No 5, N-{2-[(4-hydroxyphenyl)amino]-4′-methyl-4,5′-bi-1,3-thiazol-2′-yl}acetamide hydrobromate]	81
6.8	3.8	CCOC(=O)c1c(C)nn(-c2ccc(NC(=O)c3ccccc3C(=O)O)cc2)c1C [No 6, 2-[({4-[4-(ethoxycarbonyl)-3,5-dimethyl-1H-pyrazol-1-yl]phenyl}amino)carbonyl]benzoic acid]	35
3.1	1.7	Cc1cc(C(=O)C(F)(F)F)c(C)n1-c1ccc(NC(=O)c2ccccc2F)cc1 [No 7, N-{4-[2,5-dimethyl-3-(trifluoroacetyl)-1H-pyrrol-1-yl]phenyl}-2-fluorobenzamide]	36
